Data reported in ChEMBL document CHEMBL4834488, “Improved Synthesis of New FDA-Approved Treatment for KRAS G12C Mutation in Non-small Cell Lung Cancer” (ACS Med Chem Lett, 2021).

Experiment: AUC in non-small-cell lung cancer/colorectal cancer patient serum at 960 mg, po
Assay type: ADME, cell-free
Set-up: dose 960 mg
Conditions: human

AUC: 65300 ng·h/mL
Structure (SMILES): C=CC(=O)N1CCN(c2nc(=O)n(-c3c(C)ccnc3C(C)C)c3nc(-c4c(O)cccc4F)c(F)cc23)[C@@H](C)C1 [SOTORASIB]
